Toxic doses and inconclusive results are not listed. Rule as the data show it: active = T/C of 150% or more; inactive = T/C below 125%.
Tested on: L1210 leukemia ip in BDF1 mice, survival T/C
Test: NCI In Vivo Anticancer Drug Screen. Data for tumor model L1210 Leukemia (intraperitoneal) in B6D2F1 (BDF1) mice
Details: endpoint: mean survival time, higher = longer survival
Outline: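 Transplantable tumor model; survival measured in treated vs vehicle control mice. Value = treated/control.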

[1] = dose: 100.0 mg/kg/injection, schedule: Q01DX001 (ip), vehicle: Klucel (hydroxypropylcellulose) (HPC)
[2] = dose: 200.0 mg/kg/injection, schedule: Q01DX001 (ip), vehicle: Klucel (hydroxypropylcellulose) (HPC)
[3] = dose: 100.0 mg/kg/injection, schedule: Q01DX001 (ip), vehicle: carboxymethylcellulose (CMC)
[4] = dose: 200.0 mg/kg/injection, schedule: Q01DX001 (ip), vehicle: carboxymethylcellulose (CMC)
[5] = dose: 100.0 mg/kg/injection, schedule: Q04DX003 (ip), vehicle: Klucel (hydroxypropylcellulose) (HPC)
[6] = dose: 200.0 mg/kg/injection, schedule: Q04DX003 (ip), vehicle: Klucel (hydroxypropylcellulose) (HPC)
[7] = dose: 400.0 mg/kg/injection, schedule: Q04DX003 (ip), vehicle: Klucel (hydroxypropylcellulose) (HPC)
[8] = dose: 100.0 mg/kg/injection, schedule: Q01DX009 (ip), vehicle: Klucel (hydroxypropylcellulose) (HPC)
[9] = dose: 200.0 mg/kg/injection, schedule: Q01DX009 (ip), vehicle: Klucel (hydroxypropylcellulose) (HPC)
[10] = dose: 400.0 mg/kg/injection, schedule: Q01DX009 (ip), vehicle: Klucel (hydroxypropylcellulose) (HPC)
[11] = dose: 100.0 mg/kg/injection, schedule: Q04DX003 (ip), vehicle: saline with Tween-80
[12] = dose: 200.0 mg/kg/injection, schedule: Q04DX003 (ip), vehicle: saline with Tween-80
[13] = dose: 400.0 mg/kg/injection, schedule: Q04DX003 (ip), vehicle: saline with Tween-80
[14] = dose: 50.0 mg/kg/injection, schedule: Q01DX001 (ip), vehicle: carboxymethylcellulose (CMC)

Measured: T/C

CC1OC(OC2C(O[C@H]3CC[C@@]4(C)C(=CC[C@H]5[C@@H]6C[C@@H]7O[C@]8(CC[C@H](C)CN8)[C@@H](C)[C@@H]7[C@@]6(C)CC[C@@H]54)C3)OC(CO)C(O)C2OC2OC(CO)C(O)C(O)C2O)C(O)C(O)C1O (stereo not given in full)
inactive: dose: 5.0 mg/kg/injection, schedule: Q01DX001 (ip), vehicle: other 97 % of control | dose: 10.0 mg/kg/injection, schedule: Q01DX001 (ip), vehicle: other 109 % of control | dose: 20.0 mg/kg/injection, schedule: Q01DX001 (ip), vehicle: other 106 % of control

C1=C(c2ccccc2)N=C(c2ccccc2)C2C(c3ccccc3)N2C1c1ccccc1 (stereo not given)
inactive: [1] 87 % of control | [2] 91 % of control

O=C(C[n+]1ccccc1)N/N=C/c1ccccc1Cl
inactive: dose: 25.0 mg/kg/injection, schedule: Q01DX009 (ip), vehicle: saline with Tween-80 98 % of control | dose: 50.0 mg/kg/injection, schedule: Q01DX009 (ip), vehicle: saline with Tween-80 98 % of control | dose: 100.0 mg/kg/injection, schedule: Q01DX009 (ip), vehicle: saline with Tween-80 100 % of control

NNC(=O)c1cccc([N+](=O)[O-])c1
inactive: dose: 12.5 mg/kg/injection, schedule: Q04DX003 (ip), vehicle: Klucel (hydroxypropylcellulose) (HPC) 100 % of control | dose: 25.0 mg/kg/injection, schedule: Q04DX003 (ip), vehicle: Klucel (hydroxypropylcellulose) (HPC) 96 % of control

NN1CCCCCC1
inactive: dose: 100.0 mg/kg/injection, schedule: Q04DX003 (ip), vehicle: saline 102 % of control | dose: 200.0 mg/kg/injection, schedule: Q04DX003 (ip), vehicle: saline 97 % of control | dose: 400.0 mg/kg/injection, schedule: Q04DX003 (ip), vehicle: saline 94 % of control

CCc1c(Cl)c(C)cc(O)c1Cl
inactive: dose: 25.0 mg/kg/injection, schedule: Q01DX009 (ip), vehicle: gum acacia 98 % of control | dose: 25.0 mg/kg/injection, schedule: Q04DX003 (ip), vehicle: gum acacia 100 % of control | dose: 50.0 mg/kg/injection, schedule: Q01DX009 (ip), vehicle: gum acacia 98 % of control | dose: 50.0 mg/kg/injection, schedule: Q04DX003 (ip), vehicle: gum acacia 90 % of control | dose: 100.0 mg/kg/injection, schedule: Q04DX003 (ip), vehicle: gum acacia 96 % of control

CCOC(=O)c1[nH]c2ccccc2c1CN(CC)CC
inactive: dose: 75.0 mg/kg/injection, schedule: Q01DX001 (ip), vehicle: carboxymethylcellulose (CMC) 94 % of control

BrCc1ccc(Br)cc1
inactive: [3] 96 % of control | [4] 91 % of control

CCOC(=O)/C(C)=N/Nc1cc(Cl)ccc1O
inactive: dose: 100.0 mg/kg/injection, schedule: Q01DX001 (ip), vehicle: saline 95 % of control | dose: 200.0 mg/kg/injection, schedule: Q01DX001 (ip), vehicle: saline 94 % of control | dose: 400.0 mg/kg/injection, schedule: Q01DX001 (ip), vehicle: saline 106 % of control

CC(C)(SCCc1ccncc1)C(N)C(=O)O (stereo not given)
inactive: [5] 97 % of control | [6] 92 % of control | [7] 94 % of control

COC(=S)SCN(CSC(=S)OC)c1ccccc1Cl
inactive: dose: 50.0 mg/kg/injection, schedule: Q01DX001 (ip), vehicle: Klucel (hydroxypropylcellulose) (HPC) 111 % of control | [1] 101 % of control | [8] 109 % of control | [5] 103 % of control | [2] 103 % of control | [9] 109 % of control | [6] 95 % of control | dose: 400.0 mg/kg/injection, schedule: Q01DX001 (ip), vehicle: Klucel (hydroxypropylcellulose) (HPC) 98 % of control | [10] 109 % of control | [7] 103 % of control

CC(=O)N=c1cc(-c2ccc(Cl)cc2)ss1
inactive: [11] 90 % of control | [12] 95 % of control | [13] 98 % of control

CSc1ccccc1C(=O)O
inactive: [14] 100 % of control | [3] 100 % of control | [8] 97 % of control | [5] 103 % of control | [4] 94 % of control | [9] 95 % of control | [6] 94 % of control | dose: 400.0 mg/kg/injection, schedule: Q01DX001 (ip), vehicle: carboxymethylcellulose (CMC) 96 % of control | [10] 100 % of control | [7] 110 % of control

CC(C(=O)NN)C(C)(C)O (stereo not given)
inactive: dose: 100.0 mg/kg/injection, schedule: Q04DX002 (ip), vehicle: Klucel (hydroxypropylcellulose) (HPC) 97 % of control | dose: 200.0 mg/kg/injection, schedule: Q04DX002 (ip), vehicle: Klucel (hydroxypropylcellulose) (HPC) 94 % of control | dose: 400.0 mg/kg/injection, schedule: Q04DX002 (ip), vehicle: Klucel (hydroxypropylcellulose) (HPC) 101 % of control

CC[Si](CC)(c1ccccc1)N1CC1
inactive: dose: 25.0 mg/kg/injection, schedule: Q01DX001 (ip), vehicle: carboxymethylcellulose (CMC) 97 % of control | [14] 101 % of control

Cn1c2ccccc2c2cc3cnccc3cc21
inactive: dose: 37.5 mg/kg/injection, schedule: Q04DX003 (ip), vehicle: Klucel (hydroxypropylcellulose) (HPC) 102 % of control | dose: 75.0 mg/kg/injection, schedule: Q04DX003 (ip), vehicle: Klucel (hydroxypropylcellulose) (HPC) 105 % of control | dose: 150.0 mg/kg/injection, schedule: Q04DX003 (ip), vehicle: Klucel (hydroxypropylcellulose) (HPC) 106 % of control | dose: 300.0 mg/kg/injection, schedule: Q04DX003 (ip), vehicle: Klucel (hydroxypropylcellulose) (HPC) 111 % of control

CC1CCC(C)(C)CC1(C)c1cc(CN(C)C)c(O)c(CN(C)C)c1 (stereo not given)
inactive: dose: 12.5 mg/kg/injection, schedule: Q04DX003 (ip), vehicle: acetone 93 % of control | dose: 25.0 mg/kg/injection, schedule: Q04DX003 (ip), vehicle: acetone 98 % of control | dose: 50.0 mg/kg/injection, schedule: Q04DX003 (ip), vehicle: acetone 90 % of control

CC(C)C(C=O)(CCN(C)Cc1ccccc1)c1cccc2ccccc12 (stereo not given)
inactive: [11] 93 % of control | [12] 92 % of control | [13] 100 % of control

CCCCCCCCCCCCCCCCCC[Se]CCCCCCCCCCCCCCCCCC
inactive: [11] 88 % of control | [12] 92 % of control | [13] 93 % of control

Cc1cc(OC(=O)Nc2cccc(C(F)(F)F)c2)c(C)cc1Cl
inactive: [8] 106 % of control | [9] 118 % of control | [10] 102 % of control

CC(=O)Nc1c(Cl)cc2c(c1Cl)C(=O)c1ccccc1-2
inactive: [5] 105 % of control | [6] 100 % of control | [7] 103 % of control

CC1=CC(=O)C(c2ccc(O)cc2O)=CC1=O
inactive: dose: 75.0 mg/kg/injection, schedule: Q01DX001 (ip), vehicle: other 101 % of control

Reference: PubChem BioAssay AID248 (DTP/NCI, 2004)
